Source: PubChem BioAssay AID296 (DTP/NCI, 2004)
“And” between values parts separate entries of the source, which are not always exact repeats. Identical values can stand only once. Records with an inconclusive call do not appear. Where a SMILES comes first, the peptide text is derived from it. The star is where a group is joined. Trt = c1ccc(C(c2ccccc2)(c2ccccc2)*)cc1; Cbz = O=C(OCc1ccccc1)*

Tested on: MX-1 breast xenograft, nude mice, tumor weight T/C
Assay: NCI In Vivo Anticancer Drug Screen. Data for tumor model Human Mammary Carcinoma MX-1 Xenograft (intrarenal inoculation) in NU/NU Swiss (nude) mice
Conditions: endpoint: mean tumor weight change, higher = larger tumour
Description: The antitumor activity of compounds was measured in mice bearing transplantable tumors. Survival or tumor size were measured and the results are expressed as the measurement made in the treated group (T) divided by the measurement made in the vehicle treated control group (C). The tumor model used in this assay is Human Mammary Carcinoma MX-1 Xenograft (intrarenal inoculation) in NU/NU Swiss (nude) mice

[1] = dose: 1.0 mg/kg/injection, schedule: Q01DX010 (sc), vehicle: saline
[2] = dose: 8.0 mg/kg/injection, schedule: Q01DX010 (sc), vehicle: saline
[3] = dose: 150.0 mg/kg/injection, schedule: Q04DX003 (sc), vehicle: saline with Tween-80
[4] = dose: 300.0 mg/kg/injection, schedule: Q04DX003 (sc), vehicle: saline with Tween-80
[5] = dose: 1200.0 mg/kg/injection, schedule: Q04DX003 (sc), vehicle: saline with Tween-80
[6] = dose: 600.0 mg/kg/injection, schedule: Q04DX003 (sc), vehicle: saline with Tween-80
[7] = dose: 2400.0 mg/kg/injection, schedule: Q04DX003 (sc), vehicle: saline with Tween-80
[8] = dose: 25.0 mg/kg/injection, schedule: Q01DX010 (sc), vehicle: saline with Tween-80
[9] = dose: 50.0 mg/kg/injection, schedule: Q01DX010 (sc), vehicle: saline with Tween-80
[10] = dose: 300.0 mg/kg/injection, schedule: Q04DX003 (sc), vehicle: suspension in saline

COc1ccc(CC2C(=O)NC(C)C(=O)N(C)C3Cc4ccc(cc4)Oc4cc(ccc4O)CC(C(=O)NC(C)C(=O)NC(C)C(=O)N2C)N(C)C3=O)cc1 (centres undefined)
T/C (dose: 8.0 mg/kg/injection, schedule: Q04DX003 (sc), vehicle: saline with Tween-80): 28 % of control and 44 % of control and 47 % of control | T/C (dose: 16.0 mg/kg/injection, schedule: Q04DX003 (sc), vehicle: saline with Tween-80): 20 % of control and 26 % of control and 43 % of control | T/C (dose: 32.0 mg/kg/injection, schedule: Q04DX003 (sc), vehicle: saline with Tween-80): 6 % of control and 18 % of control

O=C([CH-]C(=O)C(F)(F)F)c1ccccc1.O=C([CH-]C(=O)C(F)(F)F)c1ccccc1.O=C([CH-]C(=O)C(F)(F)F)c1ccccc1.O=C([CH-]C(=O)C(F)(F)F)c1ccccc1.[Eu+3].c1ccncc1
T/C (dose: 50.0 mg/kg/injection, schedule: Q01DX010 (sc), vehicle: Klucel (hydroxypropylcellulose) (HPC)): 197 % of control | T/C (dose: 100.0 mg/kg/injection, schedule: Q01DX010 (sc), vehicle: Klucel (hydroxypropylcellulose) (HPC)): 174 % of control | T/C (dose: 200.0 mg/kg/injection, schedule: Q01DX010 (sc), vehicle: Klucel (hydroxypropylcellulose) (HPC)): 97 % of control | T/C (dose: 400.0 mg/kg/injection, schedule: Q01DX010 (sc), vehicle: Klucel (hydroxypropylcellulose) (HPC)): 178 % of control

COc1cc2c(cc1O)N=C[C@@H]1CCC(O)N1C2=O (mixture of isomers)
T/C [1]: 295 % of control | T/C (dose: 2.0 mg/kg/injection, schedule: Q01DX010 (sc), vehicle: saline): 197 % of control | T/C (dose: 4.0 mg/kg/injection, schedule: Q01DX010 (sc), vehicle: saline): 214 % of control | T/C [2]: 187 % of control

O=C(O)c1ccc(C(=O)O)c(C(=O)O)c1.[NH-]C1CCCCC1[NH-].[Pt+2]
T/C (dose: 3.12 mg/kg/injection, schedule: Q01DX010 (sc), vehicle: sodium bicarbonate): 10 % of control and 27 % of control | T/C (dose: 6.25 mg/kg/injection, schedule: Q01DX010 (sc), vehicle: sodium bicarbonate): 1 % of control and 2 % of control

CC[C@]1(O)C[C@H]2CN(CCc3c([nH]c4ccccc34)[C@@](C(=O)OC)(c3cc4c(cc3OC)N(C=O)[C@H]3[C@@](O)(C(=O)OC)[C@H](OC(C)=O)[C@]5(CC)C=CCN6CC[C@]43[C@@H]65)C2)C1
T/C (dose: 0.5 mg/kg/injection, schedule: Q01DX010 (sc), vehicle: saline): -100 % of control and -81 % of control | T/C [1]: -99 % of control

Oc1cc2ccccc2c(-c2c(O)c(O)cc3ccccc23)c1O
T/C [3]: 162 % of control | T/C [4]: 151 % of control | T/C [5]: 96 % of control

Cc1c2cc(Cl)c3ccccc3c2c[n+]2ccccc12
T/C [4]: 82 % of control | T/C [6]: 67 % of control | T/C [5]: 44 % of control | T/C [7]: 76 % of control

COc1nc(C(Cl)(Cl)Cl)c(Cl)c(OC)c1Cl
T/C (dose: 75.0 mg/kg/injection, schedule: Q04DX003 (ip), vehicle: Klucel (hydroxypropylcellulose) (HPC)): 33 % of control | T/C (dose: 150.0 mg/kg/injection, schedule: Q04DX003 (ip), vehicle: Klucel (hydroxypropylcellulose) (HPC)): -28 % of control | T/C (dose: 150.0 mg/kg/injection, schedule: Q04DX003 (oral), vehicle: Klucel (hydroxypropylcellulose) (HPC)): -33 % of control | T/C (dose: 300.0 mg/kg/injection, schedule: Q04DX003 (ip), vehicle: Klucel (hydroxypropylcellulose) (HPC)): 10 % of control | T/C (dose: 300.0 mg/kg/injection, schedule: Q04DX003 (oral), vehicle: Klucel (hydroxypropylcellulose) (HPC)): -15 % of control

c1ccc2c(c1)nnn1c3cnccc3nc21
T/C (dose: 12.5 mg/kg/injection, schedule: Q01DX010 (sc), vehicle: saline with Tween-80): 36 % of control | T/C [8]: 86 % of control | T/C [9]: 63 % of control

CC(=Nc1ccccc1)C1=C(O)C(Cc2ccccc2)NC1=O (centres undefined)
T/C [3]: 92 % of control | T/C [4]: 63 % of control | T/C [6]: 48 % of control | T/C [5]: 44 % of control

COC(=O)C(CSC(c1ccccc1)(c1ccccc1)c1ccccc1)NC(=O)C(CC(N)=O)NC(=O)OCc1ccccc1 (stereo not drawn) (Cbz-Asn-Cys(Trt)-OMe; configuration not given here)
T/C (dose: 300.0 mg/kg/injection, schedule: Q04DX003 (sc), vehicle: distilled water + Tween-80): 97 % of control | T/C (dose: 600.0 mg/kg/injection, schedule: Q04DX003 (sc), vehicle: distilled water + Tween-80): 77 % of control | T/C (dose: 1200.0 mg/kg/injection, schedule: Q04DX003 (sc), vehicle: distilled water + Tween-80): 78 % of control | T/C (dose: 2400.0 mg/kg/injection, schedule: Q04DX003 (sc), vehicle: distilled water + Tween-80): 94 % of control

NC(=O)c1[nH]nc(C2OC(CO)C(O)C2O)c1O (centres undefined)
T/C (dose: 2.5 mg/kg/injection, schedule: Q04DX003 (sc), vehicle: saline): 111 % of control | T/C (dose: 20.0 mg/kg/injection, schedule: Q04DX003 (sc), vehicle: saline): 68 % of control

Nc1cc(Cl)c2[nH]cnc2n1
T/C (dose: 200.0 mg/kg/injection, schedule: Q04DX003 (sc), vehicle: water): 47 % of control | T/C (dose: 400.0 mg/kg/injection, schedule: Q04DX003 (sc), vehicle: water): 42 % of control | T/C (dose: 800.0 mg/kg/injection, schedule: Q04DX003 (sc), vehicle: water): 55 % of control

CCCCNC(C)[C@]1(O)Cc2c(O)c3c(c(O)c2[C@@H](OC2CC(N)C(O)C(C)O2)C1)C(=O)c1c(OC)cccc1C3=O (some centres undefined)
T/C (dose: 6.25 mg/kg/injection, schedule: Q01DX010 (sc), vehicle: saline): 59 % of control and 61 % of control | T/C (dose: 18.0 mg/kg/injection, schedule: Q01DX010 (sc), vehicle: saline): 12 % of control

COc1ccc2nc3cc(Cl)ccc3c(NCCNCCNCCNc3c4ccc(Cl)cc4nc4ccc(OC)cc34)c2c1
T/C [8]: 74 % of control | T/C [9]: 78 % of control | T/C (dose: 100.0 mg/kg/injection, schedule: Q01DX010 (sc), vehicle: saline with Tween-80): 115 % of control | T/C (dose: 200.0 mg/kg/injection, schedule: Q01DX010 (sc), vehicle: saline with Tween-80): 80 % of control

CCCCNCCCNCCCNC(=O)c1csc(-c2csc(CCNC(=O)C(NC(=O)C(C)C(O)C(C)NC(=O)C(NC(=O)c3nc(C(CC(N)=O)NCC(N)C(N)=O)nc(N)c3C)C(OC3OC(CO)C(O)C(O)C3OC3OC(CO)C(O)C(OC(N)=O)C3O)c3cnc[nH]3)C(C)O)n2)n1 (centres undefined)
T/C [2]: 104 % of control | T/C (dose: 16.0 mg/kg/injection, schedule: Q01DX010 (sc), vehicle: saline): 73 % of control | T/C (dose: 32.0 mg/kg/injection, schedule: Q01DX010 (sc), vehicle: saline): 39 % of control

ClCCCN1CCN(CCCl)CC1
T/C (dose: 7.5 mg/kg/injection, schedule: Q04DX003 (sc), vehicle: saline): 8 % of control and 10 % of control and 31 % of control

Nc1ncnc2c(C3OC(CO)C(O)C3O)[nH]nc12 (centres undefined)
T/C (dose: 75.0 mg/kg/injection, schedule: Q04DX003 (sc), vehicle: Klucel (hydroxypropylcellulose) (HPC)): -100 % of control | T/C (dose: 75.0 mg/kg/injection, schedule: Q04DX003 (sc), vehicle: suspension in saline): 5 % of control | T/C (dose: 150.0 mg/kg/injection, schedule: Q04DX003 (sc), vehicle: Klucel (hydroxypropylcellulose) (HPC)): -100 % of control | T/C (dose: 150.0 mg/kg/injection, schedule: Q04DX003 (sc), vehicle: suspension in saline): 5 % of control | T/C [10]: -79 % of control

CN1C(=O)C(=Cc2ccc(O)cc2)C(=O)N(C)C1=O
T/C [4]: 96 % of control | T/C [6]: 92 % of control | T/C [5]: 99 % of control | T/C [7]: 107 % of control

Clc1cc(Cl)c(C[N+]23CN4CN(CN(C4)C2)C3)cc1Cl
T/C (dose: 37.5 mg/kg/injection, schedule: Q04DX003 (sc), vehicle: saline with Tween-80): 106 % of control | T/C (dose: 75.0 mg/kg/injection, schedule: Q04DX003 (sc), vehicle: saline with Tween-80): 120 % of control | T/C [3]: 110 % of control | T/C [4]: 169 % of control

NC(=S)c1ncn(C2OC(CO)C(O)C2O)c1N (centres undefined)
T/C [10]: 50 % of control | T/C (dose: 600.0 mg/kg/injection, schedule: Q04DX003 (sc), vehicle: suspension in saline): 89 % of control | T/C (dose: 1200.0 mg/kg/injection, schedule: Q04DX003 (sc), vehicle: suspension in saline): 95 % of control | T/C (dose: 2400.0 mg/kg/injection, schedule: Q04DX003 (sc), vehicle: suspension in saline): 99 % of control

Cc1c(-c2ccc(C3CCCCC3)cc2)nc2ccc(F)cc2c1C(=O)O
T/C (dose: 300.0 mg/kg/injection, schedule: Q04DX003 (sc), vehicle: Klucel (hydroxypropylcellulose) (HPC)): 86 % of control | T/C (dose: 600.0 mg/kg/injection, schedule: Q04DX003 (sc), vehicle: Klucel (hydroxypropylcellulose) (HPC)): 75 % of control | T/C (dose: 1200.0 mg/kg/injection, schedule: Q04DX003 (sc), vehicle: Klucel (hydroxypropylcellulose) (HPC)): 80 % of control | T/C (dose: 2400.0 mg/kg/injection, schedule: Q04DX003 (sc), vehicle: Klucel (hydroxypropylcellulose) (HPC)): 96 % of control
